Data from ChEMBL document CHEMBL5465560, “Selectivity Literature for EUbOPEN Chemogenomic Library” (2024).

What was measured:
[1] = target: Serine/threonine-protein kinase mTOR (Homo sapiens, UniProt P42345); assay: Selectivity interaction (KinomeScan (DiscoverX)) EUB0000229b MTOR; conditions: at 10 µM
[2] = target: T1, Protein arginine N-methyltransferase 9 (Homo sapiens) (UniProt Q6P2P2); conditions: at 1 µM
T1 sequence (whole entry): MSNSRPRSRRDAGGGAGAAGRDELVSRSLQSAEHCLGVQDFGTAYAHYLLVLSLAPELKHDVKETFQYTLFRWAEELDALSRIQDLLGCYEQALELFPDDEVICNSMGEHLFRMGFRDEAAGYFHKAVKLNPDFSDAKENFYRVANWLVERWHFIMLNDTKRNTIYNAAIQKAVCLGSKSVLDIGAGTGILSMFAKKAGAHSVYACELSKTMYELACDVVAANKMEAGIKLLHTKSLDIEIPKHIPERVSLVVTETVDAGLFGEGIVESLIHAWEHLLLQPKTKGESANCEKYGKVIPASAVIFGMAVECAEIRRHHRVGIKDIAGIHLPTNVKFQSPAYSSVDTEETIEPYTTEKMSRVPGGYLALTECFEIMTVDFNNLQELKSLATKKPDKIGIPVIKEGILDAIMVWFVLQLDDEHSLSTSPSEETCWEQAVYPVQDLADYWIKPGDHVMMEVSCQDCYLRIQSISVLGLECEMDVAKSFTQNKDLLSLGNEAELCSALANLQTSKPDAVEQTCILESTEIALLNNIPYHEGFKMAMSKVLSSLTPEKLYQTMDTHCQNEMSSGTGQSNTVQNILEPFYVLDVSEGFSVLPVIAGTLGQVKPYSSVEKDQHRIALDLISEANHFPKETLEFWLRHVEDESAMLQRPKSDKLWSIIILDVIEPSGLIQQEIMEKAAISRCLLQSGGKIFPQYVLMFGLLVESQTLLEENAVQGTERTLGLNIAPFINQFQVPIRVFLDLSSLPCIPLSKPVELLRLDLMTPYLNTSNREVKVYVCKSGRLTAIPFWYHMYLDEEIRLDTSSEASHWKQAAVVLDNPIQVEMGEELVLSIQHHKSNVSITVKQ

[3] = target: Tyrosine-protein kinase ABL1 (Homo sapiens, UniProt P00519); assay: Selectivity interaction (KinomeScan (DiscoverX)) EUB0001079a ABL1; conditions: at 1 µM
[4] = target: T2, Receptor-interacting serine/threonine-protein kinase 1 (Homo sapiens) (UniProt Q13546); assay: Selectivity interaction (KinomeScan (DiscoverX)) EUB0001079a RIPK1; conditions: at 1 µM
T2 sequence (whole entry): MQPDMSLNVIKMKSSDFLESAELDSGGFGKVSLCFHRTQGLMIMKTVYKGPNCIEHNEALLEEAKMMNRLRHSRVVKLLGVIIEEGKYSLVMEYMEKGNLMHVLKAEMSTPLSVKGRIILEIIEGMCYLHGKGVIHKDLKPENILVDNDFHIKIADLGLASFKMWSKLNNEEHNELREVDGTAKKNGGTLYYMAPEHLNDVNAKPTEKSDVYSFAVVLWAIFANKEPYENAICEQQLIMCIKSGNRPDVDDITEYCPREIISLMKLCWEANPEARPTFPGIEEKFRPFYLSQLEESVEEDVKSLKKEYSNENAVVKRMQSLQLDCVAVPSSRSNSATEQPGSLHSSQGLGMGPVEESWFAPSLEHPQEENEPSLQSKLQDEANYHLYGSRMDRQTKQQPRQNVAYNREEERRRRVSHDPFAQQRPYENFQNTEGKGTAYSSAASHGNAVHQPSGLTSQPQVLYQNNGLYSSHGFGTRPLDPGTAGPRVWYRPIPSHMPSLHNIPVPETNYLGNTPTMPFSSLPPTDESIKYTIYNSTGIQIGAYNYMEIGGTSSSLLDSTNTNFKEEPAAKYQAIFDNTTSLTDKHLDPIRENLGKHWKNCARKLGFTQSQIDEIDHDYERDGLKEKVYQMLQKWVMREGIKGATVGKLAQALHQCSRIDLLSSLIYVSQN

[5] = target: Mitogen-activated protein kinase 11 (Homo sapiens) (UniProt Q15759); assay: Selectivity interaction (Millipore kinase profiler) EUB0000124b MAPK11; conditions: at 10 µM
[6] = target: T3, Serine/threonine-protein kinase Nek11 (Homo sapiens) (UniProt Q8NG66); assay: Selectivity interaction (Upstate Kinase Profiler service (Millipore)) EUB0000056c NEK11; conditions: at 1 µM
T3 sequence (whole entry): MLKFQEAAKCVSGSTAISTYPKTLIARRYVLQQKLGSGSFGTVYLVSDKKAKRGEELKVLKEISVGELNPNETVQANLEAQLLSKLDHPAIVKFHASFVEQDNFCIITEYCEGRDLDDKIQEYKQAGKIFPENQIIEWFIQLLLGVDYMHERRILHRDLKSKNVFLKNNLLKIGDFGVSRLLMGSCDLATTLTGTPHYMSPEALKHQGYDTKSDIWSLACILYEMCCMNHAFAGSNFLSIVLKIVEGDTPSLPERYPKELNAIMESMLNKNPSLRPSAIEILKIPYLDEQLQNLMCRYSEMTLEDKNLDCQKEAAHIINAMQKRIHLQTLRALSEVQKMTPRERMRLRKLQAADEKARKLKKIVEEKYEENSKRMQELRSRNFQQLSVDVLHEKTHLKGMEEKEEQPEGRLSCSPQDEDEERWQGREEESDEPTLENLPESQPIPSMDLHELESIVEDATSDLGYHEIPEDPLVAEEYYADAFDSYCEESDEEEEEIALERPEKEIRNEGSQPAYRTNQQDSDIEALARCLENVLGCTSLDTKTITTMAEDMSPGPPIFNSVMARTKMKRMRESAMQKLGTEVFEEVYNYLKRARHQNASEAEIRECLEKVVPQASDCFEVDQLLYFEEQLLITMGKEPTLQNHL

[7] = target: Phosphatidylinositol 4,5-bisphosphate 3-kinase catalytic subunit gamma isoform (Homo sapiens) (UniProt P48736); assay: Selectivity interaction (ActivX KiNativ screen (ex vivo kinase selectivity in human PBMCs)) EUB0001619a PIK3CG; type: cell-based; conditions: PBMC, at 1 µM
[8] = target: Casein kinase I isoform gamma-3 (Homo sapiens) (UniProt Q9Y6M4); assay: Selectivity interaction (KinomeScan (DiscoverX)) EUB0000607a CSNK1G3; conditions: at 10 µM
[9] = target: Serine/threonine-protein kinase pim-3 (Homo sapiens) (UniProt Q86V86); assay: Selectivity interaction (Kinase panel (DSF assay)) EUB0001558a PIM3
[10] = target: Serine/threonine-protein kinase 26 (Homo sapiens, UniProt Q9P289); assay: Selectivity interaction (ActivX KiNativ screen (kinase selectivity in THP-1 cell lysates)) EUB0000639a STK26; type: subcellular; conditions: lysate, at 5 µM
[11] = target: Activin receptor type-2B (Homo sapiens) (UniProt Q13705); conditions: at 10 µM
[12] = target: Activin receptor type-1-like (Homo sapiens) (UniProt P37023); assay: Selectivity interaction (Ambit KINOMEscan and KiNATiv profiling in Jurkat cells) EUB0000090b ACVRL1; type: cell-based; conditions: at 1 µM
Activin receptor type-1-like (Homo sapiens), sequence (P37023 whole entry): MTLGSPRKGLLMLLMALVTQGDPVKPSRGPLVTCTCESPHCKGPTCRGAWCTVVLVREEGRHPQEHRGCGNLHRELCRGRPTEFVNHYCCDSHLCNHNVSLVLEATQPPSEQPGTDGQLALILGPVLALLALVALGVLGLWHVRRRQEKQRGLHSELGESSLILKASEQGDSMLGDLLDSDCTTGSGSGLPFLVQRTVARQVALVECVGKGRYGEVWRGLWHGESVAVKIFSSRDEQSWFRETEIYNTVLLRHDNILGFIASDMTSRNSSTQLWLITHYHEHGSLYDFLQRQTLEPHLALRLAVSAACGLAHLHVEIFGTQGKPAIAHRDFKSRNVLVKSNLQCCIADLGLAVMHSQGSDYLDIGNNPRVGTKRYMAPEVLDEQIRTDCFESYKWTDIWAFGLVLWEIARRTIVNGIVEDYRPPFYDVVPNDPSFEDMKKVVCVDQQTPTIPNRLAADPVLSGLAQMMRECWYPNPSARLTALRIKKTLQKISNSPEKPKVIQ

Activin receptor type-2B (Homo sapiens), sequence (Q13705 whole entry): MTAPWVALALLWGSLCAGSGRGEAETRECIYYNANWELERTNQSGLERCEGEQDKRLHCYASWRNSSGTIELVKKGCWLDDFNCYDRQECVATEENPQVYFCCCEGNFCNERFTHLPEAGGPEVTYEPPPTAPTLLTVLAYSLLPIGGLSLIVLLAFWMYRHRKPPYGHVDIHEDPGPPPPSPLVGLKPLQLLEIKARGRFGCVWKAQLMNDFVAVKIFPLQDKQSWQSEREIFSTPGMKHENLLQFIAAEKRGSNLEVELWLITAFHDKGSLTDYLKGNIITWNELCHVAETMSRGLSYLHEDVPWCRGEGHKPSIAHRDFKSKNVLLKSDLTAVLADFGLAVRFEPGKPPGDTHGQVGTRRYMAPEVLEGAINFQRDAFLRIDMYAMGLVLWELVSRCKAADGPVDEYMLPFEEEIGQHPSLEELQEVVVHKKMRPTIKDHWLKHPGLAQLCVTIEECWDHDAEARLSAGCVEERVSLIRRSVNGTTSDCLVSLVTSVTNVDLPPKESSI
Serine/threonine-protein kinase 26, sequence (Q9P289 2-416 limits assumed): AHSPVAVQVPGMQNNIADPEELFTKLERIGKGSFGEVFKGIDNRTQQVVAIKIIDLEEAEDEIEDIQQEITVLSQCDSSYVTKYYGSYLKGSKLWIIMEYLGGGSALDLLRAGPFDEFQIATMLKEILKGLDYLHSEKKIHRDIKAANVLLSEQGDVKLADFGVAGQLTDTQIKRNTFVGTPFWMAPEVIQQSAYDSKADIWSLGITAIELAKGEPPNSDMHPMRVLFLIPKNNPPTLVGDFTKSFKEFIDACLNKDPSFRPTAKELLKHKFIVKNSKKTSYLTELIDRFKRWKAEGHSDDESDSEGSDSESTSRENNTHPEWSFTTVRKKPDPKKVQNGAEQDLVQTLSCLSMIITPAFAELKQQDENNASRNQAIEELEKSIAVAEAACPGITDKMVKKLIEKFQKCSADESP
Mitogen-activated protein kinase 11 (Homo sapiens), sequence (Q15759 whole entry): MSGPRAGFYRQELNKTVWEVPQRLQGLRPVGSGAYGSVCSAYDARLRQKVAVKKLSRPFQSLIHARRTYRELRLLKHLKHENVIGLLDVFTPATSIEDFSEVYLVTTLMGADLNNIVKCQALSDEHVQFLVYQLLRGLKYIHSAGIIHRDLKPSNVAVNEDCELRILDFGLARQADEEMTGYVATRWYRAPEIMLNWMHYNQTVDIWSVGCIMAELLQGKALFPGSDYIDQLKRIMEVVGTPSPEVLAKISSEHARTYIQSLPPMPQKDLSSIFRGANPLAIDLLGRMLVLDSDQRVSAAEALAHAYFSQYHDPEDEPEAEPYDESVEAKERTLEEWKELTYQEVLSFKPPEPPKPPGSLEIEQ
Casein kinase I isoform gamma-3 (Homo sapiens), sequence (Q9Y6M4 whole entry, looked up, canonical isoform): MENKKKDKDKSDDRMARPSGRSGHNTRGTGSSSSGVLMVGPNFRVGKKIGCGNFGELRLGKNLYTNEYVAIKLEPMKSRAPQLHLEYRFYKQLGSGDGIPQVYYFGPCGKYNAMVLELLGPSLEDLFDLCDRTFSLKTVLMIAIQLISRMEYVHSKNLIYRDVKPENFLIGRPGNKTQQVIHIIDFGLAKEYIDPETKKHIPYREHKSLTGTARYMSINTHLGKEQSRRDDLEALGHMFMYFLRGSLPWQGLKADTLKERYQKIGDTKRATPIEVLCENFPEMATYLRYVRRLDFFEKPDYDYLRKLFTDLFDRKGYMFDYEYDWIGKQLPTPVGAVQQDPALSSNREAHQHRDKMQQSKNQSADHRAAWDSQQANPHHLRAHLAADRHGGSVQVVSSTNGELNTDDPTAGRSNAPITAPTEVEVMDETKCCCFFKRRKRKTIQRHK
Phosphatidylinositol 4,5-bisphosphate 3-kinase catalytic subunit gamma isoform (Homo sapiens), sequence (P48736 whole entry, looked up, canonical isoform): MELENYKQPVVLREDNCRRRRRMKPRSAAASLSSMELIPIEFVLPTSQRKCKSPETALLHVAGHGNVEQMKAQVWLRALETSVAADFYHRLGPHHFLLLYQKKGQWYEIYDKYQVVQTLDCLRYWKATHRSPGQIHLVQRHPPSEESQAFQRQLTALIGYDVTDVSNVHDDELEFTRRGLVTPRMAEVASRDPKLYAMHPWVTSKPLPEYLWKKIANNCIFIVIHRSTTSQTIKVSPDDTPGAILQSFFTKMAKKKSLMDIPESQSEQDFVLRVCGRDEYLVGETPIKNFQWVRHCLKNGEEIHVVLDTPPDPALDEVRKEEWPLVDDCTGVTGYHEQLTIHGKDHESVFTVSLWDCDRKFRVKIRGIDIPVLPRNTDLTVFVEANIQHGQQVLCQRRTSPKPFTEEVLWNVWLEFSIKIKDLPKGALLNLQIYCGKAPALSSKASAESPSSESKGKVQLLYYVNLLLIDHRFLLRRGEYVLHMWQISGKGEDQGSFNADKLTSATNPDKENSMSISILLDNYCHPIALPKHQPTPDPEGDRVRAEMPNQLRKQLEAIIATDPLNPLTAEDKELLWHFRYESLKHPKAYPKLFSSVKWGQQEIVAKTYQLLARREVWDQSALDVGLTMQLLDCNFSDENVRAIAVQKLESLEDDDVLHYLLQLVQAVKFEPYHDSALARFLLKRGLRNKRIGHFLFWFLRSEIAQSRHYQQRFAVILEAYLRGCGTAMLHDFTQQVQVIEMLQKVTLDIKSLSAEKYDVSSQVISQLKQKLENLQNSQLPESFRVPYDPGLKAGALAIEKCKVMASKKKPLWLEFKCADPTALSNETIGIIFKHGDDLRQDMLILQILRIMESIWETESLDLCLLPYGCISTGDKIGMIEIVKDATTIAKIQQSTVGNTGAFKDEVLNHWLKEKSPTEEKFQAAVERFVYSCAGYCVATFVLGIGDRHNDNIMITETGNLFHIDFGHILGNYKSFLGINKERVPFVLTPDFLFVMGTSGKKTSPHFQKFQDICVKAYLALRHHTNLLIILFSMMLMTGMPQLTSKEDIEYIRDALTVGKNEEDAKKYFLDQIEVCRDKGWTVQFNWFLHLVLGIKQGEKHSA
Tyrosine-protein kinase ABL1, sequence (P00519 whole entry): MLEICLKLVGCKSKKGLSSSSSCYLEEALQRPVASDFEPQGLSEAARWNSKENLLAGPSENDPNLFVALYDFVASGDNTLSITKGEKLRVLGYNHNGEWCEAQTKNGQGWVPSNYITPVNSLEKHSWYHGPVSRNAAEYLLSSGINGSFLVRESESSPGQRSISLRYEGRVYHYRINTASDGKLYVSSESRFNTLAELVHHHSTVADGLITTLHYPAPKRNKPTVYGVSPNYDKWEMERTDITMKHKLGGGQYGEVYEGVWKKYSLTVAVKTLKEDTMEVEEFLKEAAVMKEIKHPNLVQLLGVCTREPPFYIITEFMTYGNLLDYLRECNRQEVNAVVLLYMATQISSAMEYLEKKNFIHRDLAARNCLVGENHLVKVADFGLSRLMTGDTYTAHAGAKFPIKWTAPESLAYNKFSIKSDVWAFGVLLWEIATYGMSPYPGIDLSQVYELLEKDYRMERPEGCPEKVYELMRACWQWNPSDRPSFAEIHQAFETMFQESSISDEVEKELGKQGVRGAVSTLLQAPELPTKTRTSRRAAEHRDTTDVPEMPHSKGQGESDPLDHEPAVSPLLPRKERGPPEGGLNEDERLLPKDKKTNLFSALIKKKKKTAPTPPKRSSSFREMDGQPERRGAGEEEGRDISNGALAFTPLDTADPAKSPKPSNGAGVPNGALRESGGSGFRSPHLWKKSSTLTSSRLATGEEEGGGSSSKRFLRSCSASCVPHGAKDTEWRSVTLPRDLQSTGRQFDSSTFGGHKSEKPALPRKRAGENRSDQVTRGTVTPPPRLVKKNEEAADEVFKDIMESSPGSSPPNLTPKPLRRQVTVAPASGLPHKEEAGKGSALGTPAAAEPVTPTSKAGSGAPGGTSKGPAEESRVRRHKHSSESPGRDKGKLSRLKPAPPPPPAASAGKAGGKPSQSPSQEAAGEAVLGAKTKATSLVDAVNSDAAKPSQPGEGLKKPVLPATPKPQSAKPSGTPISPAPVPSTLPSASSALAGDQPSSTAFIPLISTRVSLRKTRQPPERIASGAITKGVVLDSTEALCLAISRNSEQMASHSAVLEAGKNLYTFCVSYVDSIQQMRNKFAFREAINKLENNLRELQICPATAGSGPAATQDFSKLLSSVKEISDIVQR

`COc1cc(N(C)c2ccnc3ccc(C(F)(F)F)cc23)cc(OC)c1OC` gave a % binding [1] of 94%.

With `CNCCN1CCC(c2cc(CN(C)C(=O)c3cccc(Oc4ccccc4)c3)ccn2)CC1` the % activity [2] was > 90%.

`Nc1cnc(N2CCc3cc(S(=O)(=O)Nc4c(F)cc(Cl)cc4F)cc(N4CCCC4=O)c32)nc1` [TP-020n] showed a % of control [3] of 97% and a % of control [4] of 92%.

For `CC(=O)Nc1cccc(-n2c(=O)n(C3CC3)c(=O)c3c(Nc4ccc(I)cc4F)n(C)c(=O)c(C)c32)c1`, the % of control [5] was 104%.

`Cc1ccc(-c2ccc3c(ccc4sc5c(c43)NC[C@@H](C)NC5=O)n2)cn1` gave a % of inhibition [6] of -11%.

`N#Cc1cccc(-c2c[nH]c3ncnc(N4CCOCC4)c23)c1` showed a % of inhibition [7] of -6%.

In the case of `CNC(=O)Nc1ccc(-c2nc(N3CC4CCC(C3)O4)c3cnn(C4CCC5(CC4)OCCO5)c3n2)cc1`, the % of control [8] is reported as 48%.

`CC(C)(O)[C@H](F)CN1Cc2cc(NC(=O)c3cnn4cccnc34)c(N3CCOCC3)cc2C1=O` showed a dTM [9] of 1 K.

With `CC[C@@H]1[C@H](F)C(=O)N[C@@H]1COc1nccc2cc(C(N)=O)c(OC)cc12` [ZIMLOVISERTIB] the % of inhibition [10] was 21.8%.

Compound `CCN(CC)CCCCNc1ncc2cc(-c3cc(OC)cc(OC)c3)c(NC(=O)NC(C)(C)C)nc2n1` has a % of control [11] of 100%.

In the case of `CN(C)C/C=C/C(=O)Nc1ccc(C(=O)N2CCCC(Nc3ncc(Cl)c(-c4c[nH]c5ccccc45)n3)C2)cc1` (configuration not stated), the % of control [12] is reported as 79%.
